Laboratory results: patent US20230009626A1 (ICHNOS SCIENCES S.A., priority 2018, published 2023)
pIC50: −log10 of the molar value.

Molecular target: HPK1 (MAP4K1) (Homo sapiens, UniProt Q92918)
Assay: FRET Assay for HPK1 (MAP4K1): one step binding assay, displacement of labeled tracer
Details: for inhibition at 1 µM: 1 μM compound; for inhibition at 1 µM / inhibition at 10 µM: FRET ratio 665/620, percent of control; for inhibition at 10 µM: 10 μM compound; for pIC50: dose response curve, nonlinear regression
How it was run: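 Percent inhibition at 1.0 and 10.0 μM and IC50 by nonlinear regression were derived from loss of FRET signal versus control. The signal runs from Eu-anti-GST antibody (4 nM) bound to 10 nM HPK1 kinase to Alexa Fluor 647 Kinase Tracer 222 (20 nM), added after a 15-min on-ice compound pre-incubation. Binding then proceeded 1 h at room temperature in HEPES pH 7.5 buffer with 10 mM MgCl2, 1 mM EGTA, 0.01% Brij-35 and 3% DMSO.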

Chain of HPK1 (MAP4K1) (Q92918 whole entry): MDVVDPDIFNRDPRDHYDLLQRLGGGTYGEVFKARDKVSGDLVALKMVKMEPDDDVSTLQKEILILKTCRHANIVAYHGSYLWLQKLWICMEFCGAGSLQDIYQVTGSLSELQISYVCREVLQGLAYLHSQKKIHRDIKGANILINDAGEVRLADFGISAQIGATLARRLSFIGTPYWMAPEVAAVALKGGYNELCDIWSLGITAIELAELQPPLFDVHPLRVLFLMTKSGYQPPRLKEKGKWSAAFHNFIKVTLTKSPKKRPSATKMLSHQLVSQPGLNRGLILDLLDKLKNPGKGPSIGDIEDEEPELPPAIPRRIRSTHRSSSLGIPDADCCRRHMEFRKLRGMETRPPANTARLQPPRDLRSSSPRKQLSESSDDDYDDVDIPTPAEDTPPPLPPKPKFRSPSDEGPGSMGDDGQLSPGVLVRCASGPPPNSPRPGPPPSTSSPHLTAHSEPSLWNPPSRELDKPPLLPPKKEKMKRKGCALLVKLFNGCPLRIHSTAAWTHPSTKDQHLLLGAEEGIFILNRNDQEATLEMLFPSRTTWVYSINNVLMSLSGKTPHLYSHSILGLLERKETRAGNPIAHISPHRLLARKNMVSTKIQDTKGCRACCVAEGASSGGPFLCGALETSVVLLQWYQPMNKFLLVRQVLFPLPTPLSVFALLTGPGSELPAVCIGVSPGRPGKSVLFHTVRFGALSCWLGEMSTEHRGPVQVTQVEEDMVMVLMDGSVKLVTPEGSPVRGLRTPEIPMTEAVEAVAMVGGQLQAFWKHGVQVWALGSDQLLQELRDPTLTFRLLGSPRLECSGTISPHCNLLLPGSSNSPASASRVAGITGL

| inhibition at 1 µM [%] | inhibition at 10 µM [%] | pIC50 | Compound |
| --- | --- | --- | --- |
| 74.9 | 75.9 | > 7.30 | C/C(Nc1ccn(C2CCN(C3COC3)CC2)n1)=C1/C(=O)Nc2cnc(-c3cnccc3C)cc21 [Example 147, (Z)-5-(4-Methylpyridin-3-yl)-3-(1-((1-(1-(oxetan-3-yl)piperidin-4-yl)-1H-pyrazol-3-yl)amino)ethylidene)-1H-pyrrolo[2,3-c]pyridin-2(3H)-one] |
| 82.4 | 94 | > 7.30 | C/C(Nc1cnn(C)c1)=C1/C(=O)Nc2cnc(-c3cncc(F)c3C)cc21 [Example 148, (Z)-5-(5-Fluoro-4-methylpyridin-3-yl)-3-(1-((1-methyl-1H-pyrazol-4-yl)amino)ethylidene)-1H-pyrrolo[2,3-c]pyridin-2(3H)-one] |
| 78.7 | 81.7 | > 7.30 | C/C(Nc1cc2n(n1)CC(=O)N(C(C)C)C2)=C1/C(=O)Nc2cnc(-c3cnccc3C)cc21 [Example 149, (Z)-5-Isopropyl-2-((1-(5-(4-methylpyridin-3-yl)-2-oxo-1H-pyrrolo[2,3-c]pyridin-3(2H)-ylidene)ethyl)amino)-4,5-dihydropyrazolo[1,5-a]pyrazin-6(7H)-one] |
| 86.7 | 86.1 | > 7.30 | C/C(Nc1cc(C(C)(C)O)n(C)n1)=C1/C(=O)Nc2cnc(-c3cnccc3C)cc21 [Example 150, (Z)-3-(1-((5-(2-Hydroxypropan-2-yl)-1-methyl-1H-pyrazol-3-yl)amino)ethylidene)-5-(4-methylpyridin-3-yl)-1H-pyrrolo[2,3-c]pyridin-2(3H)-one] |
| 85.2 | 65.2 | > 7.30 | C/C(Nc1cnn(C)c1)=C1/C(=O)Nc2cc(C#N)c(-c3cnccc3C)cc21 [Example 151, (Z)-3-(1-((1-Methyl-1H-pyrazol-4-yl)amino)ethylidene)-5-(4-methylpyridin-3-yl)-2-oxoindoline-6-carbonitrile] |
| 74.3 | 70.4 | > 7.30 | C/C(Nc1cc(C2CC2)n(C)n1)=C1/C(=O)Nc2cnc(-c3cnccc3C)cc21 [Example 152, (Z)-3-(1-((5-Cyclopropyl-1-methyl-1H-pyrazol-3-yl)amino)ethylidene)-5-(4-methylpyridin-3-yl)-1H-pyrrolo[2,3-c]pyridin-2(3H)-one] |
| 72.5 | 80.9 | > 7.30 | C/C(Nc1cnn(C[C@@H](C)O)c1)=C1/C(=O)Nc2cnc(-c3cnccc3C)cc21 [Example 153, (R,Z)-3-(1-((1-(2-Hydroxypropyl)-1H-pyrazol-4-yl)amino)ethylidene)-5-(4-methylpyridin-3-yl)-1H-pyrrolo[2,3-c]pyridin-2(3H)-one] |
| 69 | 82.5 | 6.30 to 7.00 | C/C(Nc1ccn(C)n1)=C1/C(=O)Nc2cnc(-c3cncc(F)c3C)cc21 [Example 154, (Z)-5-(5-Fluoro-4-methylpyridin-3-yl)-3-(1-((1-methyl-1H-pyrazol-3-yl)amino)ethylidene)-1H-pyrrolo[2,3-c]pyridin-2(3H)-one] |
| 65.1 | 68.8 | > 7.30 | CNC(=O)C(F)(F)n1ccc(N/C(C)=C2\C(=O)Nc3cnc(-c4cnccc4C)cc32)n1 [Example 155, (Z)-2,2-Difluoro-N-methyl-2-(3-((1-(5-(4-methylpyridin-3-yl)-2-oxo-1H-pyrrolo[2,3-c]pyridin-3(2H)-ylidene)ethyl)amino)-1H-pyrazol-1-yl)acetamide] |
| 60.6 | 80 | 7.00 to 7.30 | C/C(Nc1cnn(C[C@H](C)O)c1)=C1/C(=O)Nc2cnc(-c3cnccc3C)cc21 [Example 156, (S,Z)-3-(1-((1-(2-Hydroxypropyl)-1H-pyrazol-4-yl)amino)ethylidene)-5-(4-methylpyridin-3-yl)-1H-pyrrolo[2,3-c]pyridin-2(3H)-one] |
| 54.5 | 66.5 |  | C/C(Nc1ccn(C)n1)=C1/C(=O)Nc2cccc(-c3cnccc3C)c21 [Example 157, (Z)-3-(1-((1-Methyl-1H-pyrazol-3-yl)amino)ethylidene)-4-(4-methylpyridin-3-yl)indolin-2-one] |
| 74.7 | 91.1 | 6.30 to 7.00 | C/C(Nc1cnn(C)c1)=C1/C(=O)Nc2cnc(-c3cccnc3C)cc21 [Example 158, (Z)-3-(1-((1-Methyl-1H-pyrazol-4-yl)amino)ethylidene)-5-(2-methylpyridin-3-yl)-1H-pyrrolo[2,3-c]pyridin-2(3H)-one] |
| 62.8 | 87.4 | < 6.30 | C/C(Nc1cnn(C)c1)=C1/C(=O)Nc2cccc(-c3cnccc3C)c21 [Example 159, (Z)-3-(1-((1-Methyl-1H-pyrazol-4-yl)amino)ethylidene)-4-(4-methylpyridin-3-yl)indolin-2-one] |
| 85 | 78.4 | > 7.30 | C/C(Nc1cnn([C@H](C)C#N)c1)=C1/C(=O)Nc2cnc(-c3cnccc3C)cc21 [Example 160, (R,Z)-2-(4-((1-(5-(4-Methylpyridin-3-yl)-2-oxo-1H-pyrrolo[2,3-c]pyridin-3(2H)-ylidene)ethyl)amino)-1H-pyrazol-1-yl)propanenitrile] |
| 81.2 | 81 | > 7.30 | C/C(Nc1cnn(C)c1)=C1/C(=O)Nc2ccc(-c3cnccc3C)cc21 [Example 161, (Z)-3-(1-((1-Methyl-1H-pyrazol-4-yl)amino)ethylidene)-5-(4-methylpyridin-3-yl)indolin-2-one] |
| 76.2 | 92.9 | 7.00 to 7.30 | C/C(Nc1ccn(C)n1)=C1/C(=O)Nc2cnc(-c3cccnc3C)cc21 [Example 162, (Z)-3-(1-((1-Methyl-1H-pyrazol-3-yl)amino)ethylidene)-5-(2-methylpyridin-3-yl)-1H-pyrrolo[2,3-c]pyridin-2(3H)-one] |
| 77.3 | 81.5 | > 7.30 | C/C(Nc1ncn(C)n1)=C1/C(=O)Nc2cnc(-c3cnccc3C)cc21 [Example 163, (Z)-3-(1-((1-Methyl-1H-1,2,4-triazol-3-yl)amino)ethylidene)-5-(4-methylpyridin-3-yl)-1H-pyrrolo[2,3-c]pyridin-2(3H)-one] |
| 60.9 | 75.2 | 7.00 to 7.30 | C/C(Nc1cnn(C)c1)=C1/C(=O)Nc2cnc(-c3c(C)cccc3F)cc21 [Example 164, (Z)-5-(2-Fluoro-6-methylphenyl)-3-(1-((1-methyl-1H-pyrazol-4-yl)amino)ethylidene)-1H-pyrrolo[2,3-c]pyridin-2(3H)-one] |
| 79.3 | 71.8 | > 7.30 | C/C(Nc1cnn(CC[C@@H](C)O)c1)=C1/C(=O)Nc2cnc(-c3cnccc3C)cc21 [Example 165, (R,Z)-3-(1-((1-(3-Hydroxybutyl)-1H-pyrazol-4-yl)amino)ethylidene)-5-(4-methylpyridin-3-yl)-1H-pyrrolo[2,3-c]pyridin-2(3H)-one] |
| 62.9 | 75.7 | > 7.30 | C/C(Nc1cnn(CCC(C)(C)O)c1)=C1/C(=O)Nc2cnc(-c3cnccc3C)cc21 [Example 166, (Z)-3-(1-((1-(3-Hydroxy-3-methylbutyl)-1H-pyrazol-4-yl)amino)ethylidene)-5-(4-methylpyridin-3-yl)-1H-pyrrolo[2,3-c]pyridin-2(3H)-one] |
| 69.2 | 67.5 | > 7.30 | C/C(Nc1cnn([C@@H](C)C#N)c1)=C1/C(=O)Nc2cnc(-c3cnccc3C)cc21 [Example 167, (S,Z)-2-(4-((1-(5-(4-Methylpyridin-3-yl)-2-oxo-1H-pyrrolo[2,3-c]pyridin-3(2H)-ylidene)ethyl)amino)-1H-pyrazol-1-yl)propanenitrile] |
| 67.6 | 76.7 | > 7.30 | C/C(Nc1ccn(CC2(O)CC2)n1)=C1/C(=O)Nc2cnc(-c3cnccc3C)cc21 [Example 168, (Z)-3-(1-((1-((1-Hydroxycyclopropyl)methyl)-1H-pyrazol-3-yl)amino)ethylidene)-5-(4-methylpyridin-3-yl)-1H-pyrrolo[2,3-c]pyridin-2(3H)-one] |
| 71.4 | 84.3 | > 7.30 | C/C(Nc1ccn(CC[C@@H](C)O)n1)=C1/C(=O)Nc2cnc(-c3cnccc3C)cc21 [Example 169, (R,Z)-3-(1-((1-(3-Hydroxybutyl)-1H-pyrazol-3-yl)amino)ethylidene)-5-(4-methylpyridin-3-yl)-1H-pyrrolo[2,3-c]pyridin-2(3H)-one] |
| 70.1 | 70.3 | > 7.30 | C/C(Nc1cc(C)n(CC(F)F)n1)=C1/C(=O)Nc2cnc(-c3cnccc3C)cc21 [Example 170, (Z)-3-(1-((1-(2,2-Difluoroethyl)-5-methyl-1H-pyrazol-3-yl)amino)ethylidene)-5-(4-methylpyridin-3-yl)-1H-pyrrolo[2,3-c]pyridin-2(3H)-one] |
| 63.4 | 77 | 7.00 to 7.30 | COc1cccc(F)c1-c1cc2c(cn1)NC(=O)/C2=C(/C)Nc1cnn([C@H](C)C#N)c1 [Example 171, (R,Z)-2-(4-((1-(5-(2-Fluoro-6-methoxyphenyl)-2-oxo-1H-pyrrolo[2,3-c]pyridin-3(2H)-ylidene)ethyl)amino)-1H-pyrazol-1-yl)propanenitrile] |
| 79.2 | 80.5 | > 7.30 | COc1cccc(F)c1-c1cc2c(cn1)NC(=O)/C2=C(/C)Nc1cnn([C@@H](C)C#N)c1 [Example 172, (S,Z)-2-(4-((1-(5-(2-Fluoro-6-methoxyphenyl)-2-oxo-1H-pyrrolo[2,3-c]pyridin-3(2H)-ylidene)ethyl)amino)-1H-pyrazol-1-yl)propanenitrile] |
